Structures can show the parent of a compound that is named as a salt.
molecular target: GSK3β (Homo sapiens, UniProt P49841); assay: Inhibitory activity against GSK3β (33P-ATP phosphorylation of prephosphorylated GS1 peptide, two protocols); assay type: biochemical
Method: Inhibitory Activity of the Medicament of the Present Invention Against GSK3β Two different protocols can be used. In a first protocol: 7.5 μM of prephosphorylated GS1 peptide and 10 μM ATP (containing 300,000 cpm of 33P-ATP) were incubated in 25 mM Tris-HCl, pH 7.5, 0.6 mM DTT, 6 mM MgCl2, 0.6 mM EGTA, 0.05 mg/ml BSA buffer for 1 hour at room temperature in the presence of GSK3beta (total reaction volume: 100 microliters). In a second protocol: 4.1 μM of prephosphorylated GS1 peptide and 42 μM ATP (containing 260,000 cpm 33P-ATP) were incubated in 80 mM Mes-NaOH, pH 6.5, 1 mM Mg acetate, 0.5 mM EGTA, 5 mM 2-mercaptoethanol, 0.02% Tween 20, 10% glycerol buffer for 2 hours at room temperature in the presence of GSK3beta. Inhibitors were solubilized in DMSO (final solvent concentration in the reaction medium, 1%). The reaction was stopped with 100 microliters of a solution made of 25 g polyphosphoric acid (85% P2O5), 126 ml 85% H3PO4, H2O to 500 ml and then diluted to 1:100 before use. An aliquot of the reaction mixture was then transferred to Whatman P81 cation exchange filters and rinsed with the solution described above. Incorporated 33P radioactivity was determined by liquid scintillation spectrometry. The phosphorylated GS-1 peptide had the following sequence: NH2-[…](P)EDEE-COOH.

GSK3β, sequence (P49841 whole entry, species assumed): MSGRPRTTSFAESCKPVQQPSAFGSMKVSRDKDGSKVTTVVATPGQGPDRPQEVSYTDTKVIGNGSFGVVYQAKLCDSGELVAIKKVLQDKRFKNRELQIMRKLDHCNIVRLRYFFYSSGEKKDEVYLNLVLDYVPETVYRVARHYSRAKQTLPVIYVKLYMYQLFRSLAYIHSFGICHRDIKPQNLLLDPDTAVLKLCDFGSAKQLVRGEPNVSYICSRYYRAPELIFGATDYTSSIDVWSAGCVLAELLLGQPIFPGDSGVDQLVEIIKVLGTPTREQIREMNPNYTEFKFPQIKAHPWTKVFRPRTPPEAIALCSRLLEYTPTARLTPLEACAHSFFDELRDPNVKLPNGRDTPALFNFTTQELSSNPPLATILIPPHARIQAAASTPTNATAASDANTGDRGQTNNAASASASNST

SMILES | IC50 [nM]
O=C(CN1c2nc(-c3ccncc3)cc(=O)n2CCC1c1ccncc1)c1cccc(Br)c1 (stereo not shown) [Compound No. 15, 9-[2-(3-Bromo-phenyl)-2-oxo-ethyl]-2,8-dipyridin-4-yl-6,7,8,9-tetrahydro-pyrimido[1,2-a]pyrimidin-4-one hydrochloride (1:2)] | 7

test system: not given; assay: not given

SMILES | melting point [°C]
O=c1cc(-c2ccncc2)nc2n1CCC(c1ccccc1)N2CC(O)c1cccc(Br)c1 (stereo not shown) [compound 23, 9-[2-Hydroxy-2-(3-bromo-phenyl)-ethyl]-8-phenyl-2-pyridin-4-yl-6,7,8,9-tetrahydro-pyrimido[1,2-a]pyrimidin-4-one] | 170 to 172
O=c1cc(-c2ccncc2)nc2n1CCC(c1ccccc1)N2CC(O)c1ccc(Cl)cc1 (stereo not shown) [compound 24, 9-[2-Hydroxy-2-(4-chloro-phenyl)-ethyl]-8-phenyl-2-pyridin-4-yl-6,7,8,9-tetrahydro-pyrimido[1,2-a]pyrimidin-4-one] | 220 to 222
O=c1cc(-c2ccncc2)nc2n1CCC(c1ccncc1)N2CC(O)c1cccc(F)c1 (stereo not shown) [compound 25, 9-[2-(3-Fluoro-phenyl)-2-hydroxy-ethyl]-2,8-dipyridin-4-yl-6,7,8,9-tetrahydro-pyrimido[1,2-a]pyrimidin-4-one] | 218 to 220
O=c1cc(-c2ccncc2)nc2n1CCC(c1ccccc1)N2CC(O)c1ccc(F)cc1 (stereo not shown) [compound 26, 9-[2-Hydroxy-2-(4-fluoro-phenyl)-ethyl]-8-phenyl-2-pyridin-4-yl-6,7,8,9-tetrahydro-pyrimido[1,2-a]pyrimidin-4-one] | 201 to 203
O=c1cc(-c2ccncc2)nc2n1CCC(c1ccccc1)N2CC(O)c1ccc(-c2ccccc2)cc1 (stereo not shown) [compound 27, 9-[2-Hydroxy-2-(4-phenyl-phenyl)-ethyl]-8-phenyl-2-pyridin-4-yl-6,7,8,9-tetrahydro-pyrimido[1,2-a]pyrimidin-4-one] | 145 to 147
O=c1cc(-c2ccncc2)nc2n1CCC(c1ccccc1)N2CC(O)c1ccc2ccccc2c1 (stereo not shown) [compound 28, 9-[2-Hydroxy-2-naphthalen-2-yl-ethyl]-8-phenyl-2-pyridin-4-yl-6,7,8,9-tetrahydro-pyrimido[1,2-a]pyrimidin-4-one] | 190 to 192

Source: US8093256B2, “Use of 8-substituted-6,7,8,9-tetrahydropyrimido[1,2-a] pyrimidin-4-one derivatives” (Sanofi-Aventis, priority 2003, dated 2012)
